The target of experiment [1] is T1, Recombinant human NK3 (hNK3) receptor (Homo sapiens, UniProt P29371).
T1 construct: expressed in transfected cells
T1 sequence (P29371 1-465): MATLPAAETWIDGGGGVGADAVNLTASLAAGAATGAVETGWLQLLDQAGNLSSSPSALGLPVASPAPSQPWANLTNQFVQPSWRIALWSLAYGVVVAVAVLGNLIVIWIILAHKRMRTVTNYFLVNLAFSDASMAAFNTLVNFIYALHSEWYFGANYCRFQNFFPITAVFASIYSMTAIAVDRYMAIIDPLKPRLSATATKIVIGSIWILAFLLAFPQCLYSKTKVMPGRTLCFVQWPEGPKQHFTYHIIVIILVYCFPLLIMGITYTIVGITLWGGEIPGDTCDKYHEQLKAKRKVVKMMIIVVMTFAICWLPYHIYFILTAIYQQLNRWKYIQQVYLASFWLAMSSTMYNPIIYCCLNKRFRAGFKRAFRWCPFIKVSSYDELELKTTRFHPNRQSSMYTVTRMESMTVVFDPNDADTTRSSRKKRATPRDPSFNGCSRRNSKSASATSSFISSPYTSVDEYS
The experiment can be described thus: NK3 receptor binding, [3H]SR142801 displacement, membrane preparations. The note with it: second value of the cell pKi NK1/NK3; hNK3 receptor, [3H]SR142801. In short, it runs like this: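 Room-temperature, 90-min filtration binding assay using about 2.5 μg recombinant receptor membranes per well; separation on polyethyleneimine-treated glass-fibre (GF/C) filters and liquid scintillation read-out, with 10 μM SB222200 for nonspecific binding.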

Experiment [2] has as its target human NK1 receptor (Homo sapiens, UniProt P25103). Kind of experiment: NK1 receptor binding, [3H]substance P displacement, CHO cell membranes. As to conditions: first value of the cell pKi NK1/NK3; human NK1 receptor, [3H]substance P.

From patent US8404708B2, “Dual NK1/NK3 receptor antagonists” (Hoffmann-La Roche Inc., priority 2004, dated 2013) come the findings set out here.

Sequence of human NK1 receptor (P25103 whole entry): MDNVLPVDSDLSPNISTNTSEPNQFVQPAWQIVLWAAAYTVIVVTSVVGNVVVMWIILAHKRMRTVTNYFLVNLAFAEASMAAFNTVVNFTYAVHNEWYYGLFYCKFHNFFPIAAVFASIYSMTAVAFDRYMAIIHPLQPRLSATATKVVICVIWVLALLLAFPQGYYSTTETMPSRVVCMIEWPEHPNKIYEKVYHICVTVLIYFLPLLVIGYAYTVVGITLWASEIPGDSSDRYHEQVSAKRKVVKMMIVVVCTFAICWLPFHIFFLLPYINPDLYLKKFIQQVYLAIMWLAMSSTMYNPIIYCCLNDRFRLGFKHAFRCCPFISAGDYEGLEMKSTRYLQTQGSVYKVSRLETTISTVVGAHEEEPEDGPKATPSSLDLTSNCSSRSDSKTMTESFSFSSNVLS

As to `Cc1cc(F)ccc1-c1cc(N2CCC[C@H]2CO)ncc1N(C)C(=O)C(C)(C)c1cc(Cl)cc(OC(F)F)c1` [Example 38, (S)-2-(3-Chloro-5-difluoromethoxy-phenyl)-N-[4-(4-fluoro-2-methyl-phenyl)-6-(2-hydroxymethyl-pyrrolidin-1-yl)-pyridin-3-yl]-N-methyl-isobutyramide], the Ki is 2.24 nM in experiment [1] and 3.55 nM in experiment [2].

Turning to `Cc1cc(F)ccc1-c1cc(N2C[C@H](O)C[C@H]2CO)ncc1N(C)C(=O)C(C)(C)c1cc(Cl)cc(OC(F)F)c1` [Example 39, (2S,4R)-2-(3-Chloro-5-difluoromethoxy-phenyl)-N-[4-(4-fluoro-2-methyl-phenyl)-6-(4-hydroxy-2-hydroxymethyl-pyrrolidin-1-yl)-pyridin-3-yl]-N-methyl-isobutyramide], the Ki is 1.29 nM in experiment [1] and 1.05 nM in experiment [2].

For the compound `CC(=O)N[C@H]1C[C@@H](CO)N(c2cc(-c3ccccc3Cl)c(N(C)C(=O)C(C)(C)c3cc(C(F)(F)F)cc(C(F)(F)F)c3)cn2)C1` [Example 40, (2S,4S)-N-[6-(4-Acetylamino-2-hydroxymethyl-pyrrolidin-1-yl)-4-(2-chloro-phenyl)-pyridin-3-yl]-2-(3,5-bis-trifluoromethyl-phenyl)-N-methyl-isobutyramide], the Ki in experiment [1] was 1.02 nM; in experiment [2], 0.646 nM.

On to `CN(C(=O)C(C)(C)c1cc(C(F)(F)F)cc(C(F)(F)F)c1)c1cnc(N2CCC[C@@H]2CO)cc1-c1ccccc1Cl` [Example 41, (R)-2-(3,5-Bis-trifluoromethyl-phenyl)-N-[4-(2-chloro-phenyl)-6-(2-hydroxymethyl-pyrrolidin-1-yl)-pyridin-3-yl]-N-methyl-isobutyramide], for which the inhibition constant (Ki) in experiment [1] is 7.59 nM; in experiment [2] it was 1.07 nM.

In the case of `CN(C(=O)C(C)(C)c1cc(C(F)(F)F)cc(C(F)(F)F)c1)c1cnc(N2CCC[C@H]2CO)cc1-c1ccccc1Cl` [Example 42, (S)-2-(3,5-Bis-trifluoromethyl-phenyl)-N-[4-(2-chloro-phenyl)-6-(2-hydroxymethyl-pyrrolidin-1-yl)-pyridin-3-yl]-N-methyl-isobutyramide], the inhibition constant (Ki) is 0.832 nM in experiment [1] and 1.66 nM in experiment [2].

Regarding `CC(=O)N[C@H]1CCN(c2cc(-c3ccccc3Cl)c(N(C)C(=O)C(C)(C)c3cc(C(F)(F)F)cc(C(F)(F)F)c3)cn2)C1` [Example 43, (S)-N-[6-(3-Acetylamino-pyrrolidin-1-yl)-4-(2-chloro-phenyl)-pyridin-3-yl]-2-(3,5-bis-trifluoromethyl-phenyl)-N-methyl-isobutyramide], the Ki was 35.5 nM in experiment [1] and 2.4 nM in experiment [2].

Regarding `CC(=O)N[C@@H]1CCN(c2cc(-c3ccccc3Cl)c(N(C)C(=O)C(C)(C)c3cc(C(F)(F)F)cc(C(F)(F)F)c3)cn2)C1` [Example 44, (R)-N-[6-(3-Acetylamino-pyrrolidin-1-yl)-4-(2-chloro-phenyl)-pyridin-3-yl]-2-(3,5-bis-trifluoromethyl-phenyl)-N-methyl-isobutyramide], the Ki in experiment [1] is 15.5 nM; in experiment [2], 0.631 nM.

As to `CN(C(=O)C(C)(C)c1cc(C(F)(F)F)cc(C(F)(F)F)c1)c1cnc(N2CC[C@H](O)C2)cc1-c1ccccc1Cl` [Example 46, (S)-2-(3,5-Bis-trifluoromethyl-phenyl)-N-[4-(2-chloro-phenyl)-6-(3-hydroxy-pyrrolidin-1-yl)-pyridin-3-yl]-N-methyl-isobutyramide], the Ki in experiment [1] is 8.71 nM; in experiment [2], 0.603 nM.

Consider `CN(C(=O)C(C)(C)c1cc(C(F)(F)F)cc(C(F)(F)F)c1)c1cnc(N2CC[C@@H](O)C2)cc1-c1ccccc1Cl` [Example 47, (R)-2-(3,5-Bis-trifluoromethyl-phenyl)-N-[4-(2-chloro-phenyl)-6-(3-hydroxy-pyrrolidin-1-yl)-pyridin-3-yl]-N-methyl-isobutyramide], for which the Ki in experiment [1] is 6.31 nM; in experiment [2] it was 1.95 nM.

Turning to `CN(C(=O)C(C)(C)c1cc(C(F)(F)F)cc(C(F)(F)F)c1)c1cnc(N2C[C@@H](O)[C@@H](O)C2)cc1-c1ccccc1Cl` [Example 48, (3R,4S)-2-(3,5-Bis-trifluoromethyl-phenyl)-N-[4-(2-chloro-phenyl)-6-(3,4-dihydroxy-pyrrolidin-1-yl)-pyridin-3-yl]-N-methyl-isobutyramide], the Ki in experiment [1] was 8.71 nM; in experiment [2], 0.537 nM.

As to `CN(C(=O)C(C)(C)c1cc(C(F)(F)F)cc(C(F)(F)F)c1)c1cnc(N2C[C@@H](O)[C@H](O)C2)cc1-c1ccccc1Cl` [Example 49, (3R,4R)-2-(3,5-Bis-trifluoromethyl-phenyl)-N-[4-(2-chloro-phenyl)-6-(3,4-dihydroxy-pyrrolidin-1-yl)-pyridin-3-yl]-N-methyl-isobutyramide], the Ki in experiment [1] was 14.8 nM; in experiment [2], 0.479 nM.

As to `CN(C(=O)C(C)(C)c1cc(C(F)(F)F)cc(C(F)(F)F)c1)c1cnc(N2CCC(O)CC2)cc1-c1ccccc1Cl` [Example 51, 2-(3,5-bis-trifluoromethyl-phenyl)-N-[4′-(2-chloro-phenyl)-4-hydroxy-3,4,5,6-tetrahydro-2H-[1,2′]bipyridinyl-5′-yl]-N-methyl-isobutyramide], the Ki in experiment [1] was 28.8 nM; in experiment [2], 0.646 nM.

In the case of `CN(C(=O)C(C)(C)c1cc(C(F)(F)F)cc(C(F)(F)F)c1)c1cnc(N2CCC(CO)CC2)cc1-c1ccccc1Cl` [Example 52, 2-(3,5-Bis-trifluoromethyl-phenyl)-N-[4′-(2-chloro-phenyl)-4-hydroxymethyl-3,4,5,6-tetrahydro-2H-[1,2′]bipyridinyl-5′-yl]-N-methyl-isobutyramide], the Ki in experiment [1] was 7.94 nM; in experiment [2], 1.1 nM.

Take `CN(CCO)c1cc(-c2ccccc2Cl)c(N(C)C(=O)C(C)(C)c2cc(C(F)(F)F)cc(C(F)(F)F)c2)cn1` [Example 54, 2-(3,5-Bis-trifluoromethyl-phenyl)-N-{4-(2-chloro-phenyl)-6-[(2-hydroxy-ethyl)-methyl-amino]-pyridin-3-yl}-N-methyl-isobutyramide]: the Ki was 2.69 nM in experiment [1] and 1 nM in experiment [2].

With `CCN(CCO)c1cc(-c2ccccc2Cl)c(N(C)C(=O)C(C)(C)c2cc(C(F)(F)F)cc(C(F)(F)F)c2)cn1` [Example 55, 2-(3,5-Bis-trifluoromethyl-phenyl)-N-{4-(2-chloro-phenyl)-6-[ethyl-(2-hydroxy-ethyl)-amino]-pyridin-3-yl}-N-methyl-isobutyramide], the Ki was 11.2 nM in experiment [1] and 3.31 nM in experiment [2].

Consider `CCCN(CCO)c1cc(-c2ccccc2Cl)c(N(C)C(=O)C(C)(C)c2cc(C(F)(F)F)cc(C(F)(F)F)c2)cn1` [Example 56, 2-(3,5-Bis-trifluoromethyl-phenyl)-N-{4-(2-chloro-phenyl)-6-[(2-hydroxy-ethyl)-propyl-amino]-pyridin-3-yl}-N-methyl-isobutyramide], for which the inhibition constant Ki is 5.25 nM in experiment [1] and 4.57 nM in experiment [2].

For `CCCCN(CCO)c1cc(-c2ccccc2Cl)c(N(C)C(=O)C(C)(C)c2cc(C(F)(F)F)cc(C(F)(F)F)c2)cn1` [Example 57, 2-(3,5-Bis-trifluoromethyl-phenyl)-N-[6-[butyl-(2-hydroxy-ethyl)-amino]-4-(2-chloro-phenyl)-pyridin-3-yl]-N-methyl-isobutyramide], the Ki in experiment [1] was 27.5 nM; in experiment [2] it was 10 nM.

Turning to `CC(C)C[C@@H](CO)Nc1cc(-c2ccccc2Cl)c(N(C)C(=O)C(C)(C)c2cc(C(F)(F)F)cc(C(F)(F)F)c2)cn1` [Example 59, (S)-2-(3,5-Bis-trifluoromethyl-phenyl)-N-[4-(2-chloro-phenyl)-6-(1-hydroxymethyl-3-methyl-butylamino)-pyridin-3-yl]-N-methyl-isobutyramide], the Ki was 4.9 nM in experiment [1] and 3.24 nM in experiment [2].

Consider `CN(C(=O)C(C)(C)c1cc(C(F)(F)F)cc(C(F)(F)F)c1)c1cnc(N[C@H]2CC[C@H](O)CC2)cc1-c1ccccc1Cl` [Example 60, trans-2-(3,5-Bis-trifluoromethyl-phenyl)-N-[4-(2-chloro-phenyl)-6-(4-hydroxy-cyclohexylamino)-pyridin-3-yl]-N-methyl-isobutyramide], for which the values for the Ki in experiment [1] and in experiment [2] were 7.94 nM and 1.26 nM, respectively.

With `CC(=O)N1CCN(c2cc(-c3ccccc3Cl)c(N(C)C(=O)C(C)(C)c3cc(C(F)(F)F)cc(C(F)(F)F)c3)cn2)CC1` [Example 61, N-[6-(4-Acetyl-piperazin-1-yl)-4-(2-chloro-phenyl)-pyridin-3-yl]-2-(3,5-bis-trifluoromethyl-phenyl)-N-methyl-isobutyramide], the Ki in experiment [1] is 14.1 nM; in experiment [2], 0.417 nM.

Regarding `CN(C(=O)C(C)(C)c1cc(C(F)(F)F)cc(C(F)(F)F)c1)c1cnc(N2CCN(C(=O)C3CC3)CC2)cc1-c1ccccc1Cl` [Example 62, 2-(3,5-Bis-trifluoromethyl-phenyl)-N-[4-(2-chloro-phenyl)-6-(4-cyclopropanecarbonyl-piperazin-1-yl)-pyridin-3-yl]-N-methyl-isobutyramide], the values for the Ki in experiment [1] and in experiment [2] were 6.61 nM and 1.02 nM, respectively.
